{"source": "patent US20240408162A1", "about": "“Use of Extract from Morus alba L. in the Preparation of a Medicament for Preventing and/or Treating a Hepatobiliary Disease” (BEIJING WEHAND-BIO PHARMACEUTICAL CO., LTD, priority 2022, published 2024)", "key": {"[1]": {"tested_on": "HepG2 hepatocytes", "experiment": "Palmitic acid-treated HepG2 hepatocytes (non-alcoholic fatty liver model), triglyceride and cholesterol by kit", "assay_type": "cell-based", "settings": "PA-treated HepG2, 24 h, DNJ 20 μg/ml", "description": "HepG2 hepatocytes were cultured overnight in a 6-well plate at a seeding density of 2×10^5 cells/ml after digestion. HepG2 cells were treated with palmitic acid (PA) to create a non-alcoholic fatty liver model, with 0.25% BSA treatment as a control. Cells in the model groups were separately administrated with extracts from Morus alba L. (designed to be 25 μg/ml (containing 17 μg/ml DNJ) based on total alkaloids (SZ-A)) obtained from Example 1, 20 μg/ml DNJ, 5 μg/ml FAG, or 5 μg/ml DAB, and cultured for 24 h. Cells were lysed with the lysis solution containing Triton x-100 after removal of the supernatant, and the triglyceride (TG) and cholesterol (TC) in hepatocytes were detected using a kit."}, "[2]": {"tested_on": "3T3-L1 adipocytes", "experiment": "Secretion of adiponectin in 3T3-L1 adipocytes (ELISA of supernatant)", "assay_type": "cell-based", "settings": "DNJ 80, 40, 20 μg/ml; summary statement", "description": "Reduced adiponectin levels were independent risk factors for NAFLD and liver dysfunction. Adiponectin might activate liver AMPK, inhibit lipid synthesis, and promote lipid oxidation. Adiponectin might also affect inflammation of hepatic macrophages and fibrosis of hepatic stellate cells. 3T3-L1 pre-adipocytes were cultured in the medium containing calf serum and seeded into a 6-well plate at a density of 2×10^4 cells/ml. […] The supernatant was collected after culture for 8 days, and the concentration of adiponectin in the supernatant was detected using an ELISA kit."}}}
{"smiles": "OC[C@H]1NC[C@H](O)[C@@H](O)[C@@H]1O", "note": "[DNJ, 1-deoxynojirimycin]", "values": [{"measurement": "triglyceride (TG) level in hepatocytes", "setting": "[1]; SZ-A 25 μg/ml (based on total alkaloids)", "value": "reduce the triglyceride level"}, {"measurement": "cholesterol (TC) level in hepatocytes", "setting": "[1]; SZ-A 25 μg/ml", "value": "reduced the cholesterol level"}, {"measurement": "concentration of adiponectin", "setting": "[2]", "value": "increase the concentration of adiponectin"}]}
